Data taken from ChEMBL document CHEMBL4118022, “Unguiculin A and Ptilomycalins E-H, Antimalarial Guanidine Alkaloids from the Marine Sponge Monanchora unguiculata” (J Nat Prod, 2017).

Tests used:
Plasmodium falciparum = experiment: Antiplasmodial activity against Plasmodium falciparum 3D7 erythrocytic stage assessed as reduction in parasitic LDH activity measured after 48 hrs by colorimetric method; format: functional, organism-based; conditions: 3D7, 48 h
KB = experiment: Cytotoxicity against human KB cells after 72 hrs by CellTiter96 AQueous one solution assay; format: cell-based
[1] = Selectivity index, ratio of IC50 for human KB cells to IC50 for Plasmodium falciparum 3D7 erythrocytic stage; format: toxicity; conditions: KB cells versus Plasmodium falciparum 3D7 erythrocytic stage, read-out: Ratio IC50

Row | Structure (SMILES) | IC50 (Plasmodium falciparum) [nM] | IC50 (KB) [nM] | selectivity ratio [1]
1 | CC[C@@H]1C=CCC[C@]2(C[C@H]3CC[C@H]4[C@@H](C(=O)OCCCCCCCCCCCCCCCC5=NCCCN5CC(O)CCN)[C@@]5(CCC[C@H](C)O5)NC(=N2)N34)O1 (some centres undefined) | 240 | 1170 | 4.9
2 | CC[C@@H]1C=CCC[C@]2(C[C@H]3CC[C@H]4[C@@H](C(=O)OCCCCCCCCCCCCCCCC(=O)N(CCCCNC(=N)N)CCCNC(=N)N)[C@@]5(CCC[C@H](C)O5)NC(=N2)N34)O1 | 350 | 850 | 2.4
3 | CC[C@@H]1C=CCC[C@]2(C[C@H]3CC[C@H]4[C@@H](C(=O)OCCCCCCCCCCCCCCCC(=O)N(CCCCNC(=N)N)CCCNC=O)[C@@]5(CCC[C@H](C)O5)NC(=N2)N34)O1 | 230 | 1610 | 7
4 | CCCCCCCCCCCCCCCC(=O)N(CCCCNC(=N)N)CCCNC(=N)N | 12900 | 7660 | 0.6
5 | CC[C@@H]1C=CCC[C@]2(C[C@H]3CC[C@H]4[C@@H](C(=O)OCCCCCCCCCCCCCCCC(=O)O)[C@@]5(CCC[C@H](C)O5)NC(=N2)N34)O1 | – | 8800 | –
6 | C[C@@H]1CC[C@H]2[C@@H](C)C(=O)O[C@@H]3O[C@@]4(C)CC[C@@H]1[C@]32OO4 [ARTEMISININ] | 4 | – | –
